{
  "source": "ChEMBL document CHEMBL3600353",
  "about": "“In Vitro Activity of Epigallocatechin Gallate and Quercetin Alone and in Combination versus Clinical Isolates of Methicillin-Resistant Staphylococcus aureus” (2015)",
  "key": {"[1]": {"system": "Staphylococcus aureus", "assay": "Antibacterial activity against methicillin-resistant Staphylococcus aureus isolate 6 by disk diffusion assay", "type": "functional"}, "[2]": {"system": "Staphylococcus aureus", "assay": "Antibacterial activity against methicillin-resistant Staphylococcus aureus isolate 3 by disk diffusion assay", "type": "functional"}, "[3]": {"system": "Staphylococcus aureus", "assay": "Antibacterial activity against methicillin-resistant Staphylococcus aureus isolate 7 by disk diffusion assay", "type": "functional"}, "[4]": {"system": "Staphylococcus aureus", "assay": "Antibacterial activity against methicillin-resistant Staphylococcus aureus NCTC 12493 after 24 hrs by checkerboard assay", "type": "functional", "conditions": "NCTC 12493, 24 h"}, "[5]": {"system": "Staphylococcus aureus", "assay": "Antibacterial activity against methicillin-resistant Staphylococcus aureus isolate 5 by disk diffusion assay", "type": "functional"}, "[6]": {"system": "Staphylococcus aureus", "assay": "Antibacterial activity against methicillin-resistant Staphylococcus aureus isolate 2 after 24 hrs by checkerboard assay", "type": "functional", "conditions": "isolate 2, 24 h"}, "[7]": {"system": "Staphylococcus aureus", "assay": "Antibacterial activity against methicillin-resistant Staphylococcus aureus isolate 8 after 24 hrs by checkerboard assay", "type": "functional", "conditions": "isolate 8, 24 h"}, "[8]": {"system": "Staphylococcus aureus", "assay": "Antibacterial activity against methicillin-resistant Staphylococcus aureus NCTC 12493 at 1.69 mM after 4 hrs by time kill assay", "type": "functional, organism-based"}, "[9]": {"system": "Staphylococcus aureus", "assay": "Antibacterial activity against methicillin-resistant Staphylococcus aureus isolate 4 after 24 hrs by checkerboard assay", "type": "functional", "conditions": "isolate 4, 24 h"}, "[10]": {"system": "Staphylococcus aureus", "assay": "Antibacterial activity against vancomycin-intermediate resistant Staphylococcus aureus Mu50 at 1.69 mM after 4 hrs by time kill assay", "type": "functional, organism-based"}, "[11]": {"system": "Staphylococcus aureus", "assay": "Antibacterial activity against methicillin-resistant Staphylococcus aureus isolate 3 after 24 hrs by checkerboard assay", "type": "functional", "conditions": "isolate 3, 24 h"}, "[12]": {"system": "Staphylococcus aureus", "assay": "Antibacterial activity against methicillin-resistant Staphylococcus aureus isolate 2 by disk diffusion assay", "type": "functional"}, "[13]": {"system": "Staphylococcus aureus", "assay": "Antibacterial activity against methicillin-resistant Staphylococcus aureus isolate 7 after 24 hrs by checkerboard assay", "type": "functional", "conditions": "isolate 7, 24 h"}, "[14]": {"system": "Staphylococcus aureus", "assay": "Antibacterial activity against methicillin-sensitive Staphylococcus aureus ATCC 25923 at 1.69 mM after 5 hrs by time kill assay", "type": "functional, organism-based"}, "[15]": {"system": "Staphylococcus aureus", "assay": "Antibacterial activity against methicillin-sensitive Staphylococcus aureus ATCC 25923 at 1.69 mM after 4 hrs by time kill assay", "type": "functional, organism-based"}, "[16]": {"system": "Staphylococcus aureus", "assay": "Antibacterial activity against Staphylococcus aureus ATCC 25923 after 24 hrs by checkerboard assay", "type": "functional", "conditions": "ATCC 25923, 24 h"}, "[17]": {"system": "Staphylococcus aureus", "assay": "Antibacterial activity against methicillin-resistant Staphylococcus aureus isolate 1 by disk diffusion assay", "type": "functional"}, "[18]": {"system": "Staphylococcus aureus", "assay": "Antibacterial activity against methicillin-resistant Staphylococcus aureus NCTC 12493 assessed as log reduction of bacterial growth after 9 hrs", "type": "functional"}, "[19]": {"system": "Staphylococcus aureus", "assay": "Antibacterial activity against methicillin-resistant Staphylococcus aureus isolate 5 after 24 hrs by checkerboard assay", "type": "functional", "conditions": "isolate 5, 24 h"}, "[20]": {"system": "Staphylococcus aureus", "assay": "Antibacterial activity against methicillin-resistant Staphylococcus aureus isolate 1 after 24 hrs by checkerboard assay", "type": "functional", "conditions": "isolate 1, 24 h"}, "[21]": {"system": "Staphylococcus aureus", "assay": "Antibacterial activity against methicillin-resistant Staphylococcus aureus NCTC 12493 at 1.69 mM after 5 hrs by time kill assay", "type": "functional, organism-based"}, "[22]": {"system": "Staphylococcus aureus", "assay": "Antibacterial activity against methicillin-resistant Staphylococcus aureus isolate 8 by disk diffusion assay", "type": "functional"}, "[23]": {"system": "Staphylococcus aureus", "assay": "Antibacterial activity against methicillin-resistant Staphylococcus aureus isolate 4 by disk diffusion assay", "type": "functional"}, "[24]": {"system": "Staphylococcus aureus", "assay": "Antibacterial activity against vancomycin-intermediate resistant Staphylococcus aureus Mu50 after 24 hrs by checkerboard assay", "type": "functional", "conditions": "Mu50, 24 h"}, "[25]": {"system": "Staphylococcus aureus", "assay": "Antibacterial activity against methicillin-resistant Staphylococcus aureus isolate 9 after 24 hrs by checkerboard assay", "type": "functional", "conditions": "isolate 9, 24 h"}, "[26]": {"system": "Staphylococcus aureus", "assay": "Antibacterial activity against methicillin-resistant Staphylococcus aureus isolate 6 after 24 hrs by checkerboard assay", "type": "functional", "conditions": "isolate 6, 24 h"}, "[27]": {"system": "Staphylococcus aureus", "assay": "Antibacterial activity against methicillin-resistant Staphylococcus aureus isolate 9 by disk diffusion assay", "type": "functional"}},
  "note": "Activity calls are given as the source filed them. The rule behind the calls is not given here.",
  "data": [
    {"compound": "O=c1c(O)c(-c2ccc(O)c(O)c2)oc2cc(O)cc(O)c12", "note": "[QUERCETIN]", "values": [
      {"measurement": "inhibition zone (IZ)", "setting": "[1]", "value": "inactive"},
      {"measurement": "inhibition zone (IZ)", "setting": "[2]", "value": "inactive"},
      {"measurement": "inhibition zone (IZ)", "setting": "[3]", "value": "inactive"},
      {"measurement": "MIC", "setting": "[4]", "value": 850, "unit": "µM"},
      {"measurement": "inhibition zone (IZ)", "setting": "[5]", "value": "inactive"},
      {"measurement": "MIC", "setting": "[6]", "value": 1690, "unit": "µM"},
      {"measurement": "MIC", "setting": "[7]", "value": 1690, "unit": "µM"},
      {"measurement": "Activity", "setting": "[8]", "value": "Active"},
      {"measurement": "MIC", "setting": "[9]", "value": 1690, "unit": "µM"},
      {"measurement": "Activity", "setting": "[10]", "value": "inactive"},
      {"measurement": "MIC", "setting": "[11]", "value": 1690, "unit": "µM"},
      {"measurement": "inhibition zone (IZ)", "setting": "[12]", "value": "inactive"},
      {"measurement": "MIC", "setting": "[13]", "value": 1690, "unit": "µM"},
      {"measurement": "Activity", "setting": "[14]", "value": "inactive"},
      {"measurement": "Activity", "setting": "[15]", "value": "Active"},
      {"measurement": "MIC", "setting": "[16]", "value": 1690, "unit": "µM"},
      {"measurement": "inhibition zone (IZ)", "setting": "[17]", "value": 8, "unit": "mm"},
      {"measurement": "FC", "setting": "[18]", "value": 1},
      {"measurement": "MIC", "setting": "[19]", "value": 1690, "unit": "µM"},
      {"measurement": "MIC", "setting": "[20]", "value": 1690, "unit": "µM"},
      {"measurement": "Activity", "setting": "[21]", "value": "inactive"},
      {"measurement": "inhibition zone (IZ)", "setting": "[22]", "value": "inactive"},
      {"measurement": "inhibition zone (IZ)", "setting": "[23]", "value": "inactive"},
      {"measurement": "MIC", "setting": "[24]", "value": 1690, "unit": "µM"},
      {"measurement": "MIC", "setting": "[25]", "value": 1690, "unit": "µM"},
      {"measurement": "MIC", "setting": "[26]", "value": 1690, "unit": "µM"},
      {"measurement": "inhibition zone (IZ)", "setting": "[27]", "value": "inactive"}
    ]}
  ]
}
